According to patent publication US20050038048A1, “Use of 7h-pyrrollo{2,3-d}pyrimidine derivatives in the treatment of solid tumor diseases” (priority 2001, published 2005):

test system: renal cell cancer; assay: Treatment of a human patient suffering from renal cell cancer with PKI166; assay type: in vivo; conditions: 16 weeks in 4 cycles of 600 mg daily for two weeks followed by 2 weeks without drug, stable disease = less than 50% decrease or less than 25% increase in measurable or evaluable disease
Procedure: A human patient suffering from renal cell cancer is treated for a period of 16 weeks in 4 cycles consisting of administration of 600 mg of PKI166 daily for two weeks followed by 2 weeks without administering the drug. […] A human patient suffering from renal cell cancer is treated for a period of 16 weeks with 400 mg of PKI166 on Monday, Wednesday and Friday of each week.

Question: With `C[C@@H](Nc1ncnc2[nH]c(-c3ccc(O)cc3)cc12)c1ccccc1` [PKI166, (R)-6-(4-hydroxy-phenyl)-4-[(1-phenyl-ethyl)-amino]-7H-pyrrolo[2,3-d]pyrimidine] as the compound, how does the “disease response observed during treatment” value read?
Answer: Its value is “stable disease”.

same assay, conditions: 16 weeks, 400 mg on Monday, Wednesday and Friday of each week, stable disease = less than 50% decrease or less than 25% increase in measurable or evaluable disease

Question: For `C[C@@H](Nc1ncnc2[nH]c(-c3ccc(O)cc3)cc12)c1ccccc1` [PKI166, (R)-6-(4-hydroxy-phenyl)-4-[(1-phenyl-ethyl)-amino]-7H-pyrrolo[2,3-d]pyrimidine], which “disease response observed during treatment” value is on record?
Answer: Its value is “stable disease”.

test system: NSCLC; assay: Treatment of a human patient suffering from NSCLC with PKI166; assay type: in vivo; conditions: 8 weeks, 450 mg/day except on day 2, 16 and 30, partial response = greater than or equal to 50% reduction in measurable or evaluable disease without progression
Procedure: A human patient suffering from NSCLC is treated for a period of 8 weeks with 450 mg/day of PKI166 except on day 2, 16 and 30 on which days no drug is applied.

Question: For `C[C@@H](Nc1ncnc2[nH]c(-c3ccc(O)cc3)cc12)c1ccccc1` [PKI166, (R)-6-(4-hydroxy-phenyl)-4-[(1-phenyl-ethyl)-amino]-7H-pyrrolo[2,3-d]pyrimidine], which “disease response observed after treatment” value is on record?
Answer: Its value is “partial response”.

test system: not given; assay: not given; conditions: not given

Question: Which melting point does the source give for `C[C@@H](Nc1ncnc2[nH]c(-c3ccc(CN4CCN(C)CC4)cc3)cc12)c1ccccc1` [Example 1, {6-[4-(4-Methyl-piperazin-1-ylmethyl)-phenyl]-7H-pyrrolo[2,3-d]pyrimidin-4-yl}-((R)-1-phenyl-ethyl)-amine] here?
Answer: Its melting point is 248 to 250 °C.

Question: Which melting point does the source give for `CCN(CC)Cc1ccc(-c2cc3c(N[C@H](C)c4ccccc4)ncnc3[nH]2)cc1` [Example 2, [6-(4-Diethylaminomethyl-phenyl)-7H-pyrrolo[2,3-d]pyrimidin-4-yl]-((R)-1-phenyl-ethyl)-amine] here?
Answer: The melting point was 246 to 248 °C.

Question: With `C[C@@H](Nc1ncnc2[nH]c(-c3ccc(CN4CCCC4)cc3)cc12)c1ccccc1` [Example 4, ((R)-1-Phenyl-ethyl)-[6-(4-pyrrolidin-1-ylmethyl-phenyl)-7H-pyrrolo[2,3-d]pyrimidin-4-yl]-amine] as the compound, how does the melting point read?
Answer: The melting point was 254 to 256 °C.

Question: For `C[C@@H](Nc1ncnc2[nH]c(-c3ccc(CN(C)C)cc3)cc12)c1ccccc1` [Example 5, [6-(4-Dimethylaminomethyl-phenyl)-7H-pyrrolo[2,3-d]pyrimidin-4-yl]-((R)-1-phenyl-ethyl)-amine], which melting point is on record?
Answer: The melting point was 241 to 243 °C.

Question: Which melting point does the source give for `C[C@@H](Nc1ncnc2[nH]c(-c3ccc(CN4CCCCC4)cc3)cc12)c1ccccc1` [Example 6, ((R)-1-Phenyl-ethyl)-[6-(4-piperidin-1-ylmethyl-phenyl)-7H-pyrrolo[2,3-d]pyrimidin-4-yl]-amine] here?
Answer: Its melting point is 246 to 248 °C.

Question: Which melting point does the source give for `C[C@@H](Nc1ncnc2[nH]c(-c3ccc(CN4CCOCC4)cc3)cc12)c1ccccc1` [Example 7, [6-(4-Morpholin-4-ylmethyl-phenyl)-7H-pyrrolo[2,3-d]pyrimidin-4-yl]-((R)-1-phenyl-ethyl)-amine] here?
Answer: The melting point was 263 to 265 °C.

Question: For `CC1CN(Cc2ccc(-c3cc4c(N[C@H](C)c5ccccc5)ncnc4[nH]3)cc2)CC(C)N1` (stereo partly drawn) [Example 8, {6-[4-(3,5-Dimethyl-piperazin-1-ylmethyl)-phenyl]-7H-pyrrolo[2,3-d]pyrimidin-4-yl}-((R)-1-phenyl-ethyl)-amine], which melting point is on record?
Answer: Its melting point is 208 to 210 °C.

Question: Which melting point does the source give for `C[C@@H](Nc1ncnc2[nH]c(-c3ccc(CNCCN4CCOCC4)cc3)cc12)c1ccccc1` [Example 9, (6-{4-[(2-Morpholin-4-yl-ethylamino)-methyl]-phenyl}-7H-pyrrolo[2,3-d]pyrimidin-4-yl)-((R)-1-phenyl-ethyl)-amine] here?
Answer: Its melting point is 222 to 224 °C.

Question: For `C[C@@H](Nc1ncnc2[nH]c(-c3ccc(CNC4CCOCC4)cc3)cc12)c1ccccc1` [Example 10, ((R)-1-Phenyl-ethyl)-(6-{4-[(tetrahydro-pyran-4-ylamino)-methyl]-phenyl}-7H-pyrrolo[2,3-d]pyrimidin-4-yl)-amine], which melting point is on record?
Answer: The melting point was 253 to 255 °C.
